One compound from patent US20050014849A1, “Antifungal phenylethylene” (priority 2001, published 2005) can be followed below.

Test [1] deals with T1, bovine brain tubulin.
T1 construct: Electrophoretically homogeneous bovine brain tubulin [12]
In words: Tubulin polymerization assay. It counts as biochemical. To be noted: 1 mg/ml tubulin; 20 min incubation at 30° C. As to the method:
(§1) Electrophoretically homogeneous bovine brain tubulin [12] was used in studies to evaluate the effects of TMPN on in vitro tubulin polymerization and the binding of […] (Dupont-NEN) to tubulin. These studies were performed as described previously. In the polymerization assay, varying drug concentrations were added to 1 mg/ml tubulin to determine the amount of drug that would inhibit the extent of the reaction by 50% (20 min incubation at 30° C.) (IC50 value). In the colchicine binding assay, the effect of varying drug concentrations on the binding of 2 μg/ml colchicine to 100 μg/ml tubulin was measured after 10 min at 37° C. (control reaction about 50% complete).

Test [2] relates to T1, bovine brain tubulin. Description: Colchicine binding assay. To be noted: 5 μM (combretastatin A-4 1.6 μg/ml; TMPN 1.2 μg/ml); 10 min at 37° C. On the procedure:
as §1

With `COc1ccc(/C=C\c2cc(OC)c(OC)c(OC)c2)cc1O` [combretastatin A-4, reference compound], the “IC50 for inhibition of the extent of tubulin assembly” value in the test on bovine brain tubulin [1] was 0.32 ± 0.02 µg/mL. Besides, the “inhibition of [^3H]colchicine binding to tubulin” value in the test on bovine brain tubulin [2] is given as 98+1%.
